{
  "source": "patent US20100041672A1",
  "about": "“USE OF QUINOLINE DERIVATIVES IN THE TREATMENT OF PAIN AND IRRITABLE BOWEL SYNDROME” (GLAXO GROUP LIMITED, priority 2007, published 2010)",
  "key": {"rats [1]": {"system": "rats", "assay": "Chronic Constriction Injury (CCI) model of neuropathic pain in rats (mechanical allodynia, Von Frey hairs)", "assay_type": "in vivo, rat", "conditions": "30 mg/kg b.i.d. po", "experimental": "Under Isoflurane anaesthesia, the sciatic nerve in the left leg of the rat was exposed at mid thigh level and 4 loose ligatures of Chromic 4.0 gut tied around it. The wound was closed and secured with staples. The Sham operated animals underwent the same surgical technique except that the nerve was not ligated. […] The presence of mechanical (tactile) allodynia was assessed using the manual application of Von Frey hair monofilaments (Stoelting, Wood Dale, Ill., USA). Animals were placed in clear Perspex boxes on a raised perforated metallic platform, from below which the monofilaments were applied in ascending order to the plantar region of the hind paw (range: 1.4 g-26 g). Each hair was applied for approx. 3-5 seconds until a withdrawal response was observed. The lowest hair to give a withdrawal was recorded as the response after confirmation with reapplication of lower and/or higher hairs within the range tested.\nAll data are expressed as mean±s.e.m. Statistical analysis was carried out using Repeated Measures ANOVA (Statistica Version 6) to compare the vehicle treated groups with the drug treated groups (P<0.05 considered significant). Area Under Curve (AUC) calculations were performed within Excel and statistical analysis was carried out using a one-way ANOVA followed by Fischer LSD post-hoc test (Statistica Version 6) to compare the vehicle treated CCI and Sham groups with the drug treated groups (P<0.05 considered significant). Data recorded in Excel (Microsoft XP) and graphs produced in GraphPad Prism (Version 4).\nBy 8 days post-surgery neuropathy was beginning to develop as mechanical allodynia (assessed using mVFHs) was evident in all CCI operated groups compared to the Sham operated animals. This was maintained as a stable baseline until day 23 post-surgery (FIG. 12), when the animals were randomised and then chronically dosed with either SB742457 (10 mg/kg b.i.d. po), gabapentin (30 mg/kg b.i.d. po) or vehicle (1% methylcellulose; b.i.d. po) for 8 days (days 26-33 post-surgery). […] Three days after cessation of treatment the withdrawal thresholds of the drug treated groups had decreased back towards vehicle treated baseline levels."}, "male Sprague Dawley rats": {"system": "male Sprague Dawley rats", "assay": "rat intra rectal mustard oil model of visceral pain", "assay_type": "in vivo", "conditions": "behaviours counted 25 minutes", "experimental": "All behavioural responses consistent with the presence of pain were determined following intra rectal injection of mustard oil in male Sprague Dawley rats. Typical behavioural responses consistent with the presence of pain following intra-colonic mustard oil injection include: arching, abdominal lifting, abdominal tensing, stretching, extending the rear leg (when lying down), raising and lowering the testicles, tip-toeing and writhing.\nMale Sprague Dawley rats (130 g-160 g) were briefly sedated with 50% oxygen/50% carbon dioxide and 0.2 ml of 3% mustard oil injected into the colorectum, 1.5 cm from the anus. The anus was plugged with vaseline and animals placed in observational cages to which they had previously been acclimatised for 45 minutes prior to mustard oil injection. The number of visceral pain related behaviours, which consisted primarily of abdominal arching, were counted over a 25 minute period and the animals culled by cervical dislocation.\nIn separate studies, the effects of alosetron (0.1, 0.3 and 1.0 mg/kg n=10 per group), gabapentin (10, 30 and 100 mg/kg n=10 per group) and amitriptyline (3, 10 and 30 mg/kg n=9-10 per group) or vehicle (saline for alosetron and amitriptyline 10% 1-Methyl-2-pyrolidone in saline for gabapentin n=10 per study) given sub cutaneously 15 minutes prior to injection of 3% mustard oil were examined on pain behaviour. Results in FIGS. 4, 5 and 6 are expressed as mean±sem percentage of behaviours compared to vehicle treated animals and were statistically compared to vehicle treated animals using a one way ANOVA with Dunnett's comparison, p<0.05 considered significant.\nThe effect of SB742457 (0.03, 0.1, 1.0, 3.0 and 10 mg/kg, n=10 per group for the 0.03, 0.1 and 10 mg/kg groups, and n=20 for the 1.0 and 3.0 mg/kg groups) or vehicle (saline n=20) given orally 60 minutes prior to injection of mustard oil (3% mustard oil, 70% ethanol in saline) were examined on pain behaviour. The total number of visceral pain related behaviours, which consisted primarily of abdominal arching, were counted over a 25 minute period and the animals culled by cervical dislocation. Behaviours were normalised as the percentage of the vehicle group mean and expressed as mean+/−sem. Data was combined from two studies and normalised as the percentage of the vehicle group mean for each individual study and expressed as mean+/−sem for both studies. Percentage of behaviours compared to vehicle treated animals were analysed statistically using a one way ANOVA with Dunnett's comparison, p<0.05 considered significant, FIG. 10.\nThe effect of SB792988A (0.03, 0.1, 0.3, 1.0, 3.0 and 10 mg/kg, n=9 for 1.0 mg/kg, n=10 per group for the 0.03, 0.1 and 3.0 mg/kg groups, n=20 per group for the 0.3 and 10 mg/kg groups) or vehicle (saline n=20) given orally 60 minutes prior to injection of mustard oil (3% mustard oil, 70% ethanol in saline) were examined on pain behaviour. The total number of visceral pain related behaviours, which consisted primarily of abdominal arching, were counted over a 25 minute period and the animals culled by cervical dislocation. Behaviours were normalised as the percentage of the vehicle group mean and expressed as mean+/−sem. Data was combined from two studies and normalised as the percentage of the vehicle group mean for each individual study and expressed as mean+/−sem for both studies. Percentage of behaviours compared to vehicle treated animals were analysed statistically using a one way ANOVA with Dunnett's comparison, p<0.05 considered significant, FIG. 11."}, "rats [2]": {"system": "rats", "assay": "FCA induced hypersensitivity rat model (intraplantar FCA, weight bearing)", "assay_type": "in vivo", "conditions": "1 hour post dose; for weight bearing % reversal: 10 mg/kg p.o., 24 hrs after FCA", "experimental": "(§1) Naïve weight bearing readings were taken. The hypersensitivity to pain was measured using the Rat incapacitance tester (Linton instruments). All rats (180-220 g) received an intraplantar injection of 100 ul of FCA (Freund's complete adjuvant) into the left hind paw. The FCA was sonicated for 15 minutes prior to use. 24 hrs after administration of the FCA, pre-dose weight bearing readings were taken. All animals were then ranked and randomised for dosing according to their FCA window (predose difference in grams—naïve difference in grams). Rats with FCA window less than 30 were excluded from the study.\nAnimals were then dosed orally with either vehicle, SB42457 (0.01, 0.1, 1 and 10 mg/kg p.o.) or celecoxib (10 mg/kg p.o.) as appropriate according to ranking and randomisation. Animals were assessed in the weight bearing apparatus 1 hour post dose.\nThe study was blind and randomised by FCA window using the Latin square method. % reversals were calculated by using the naïve, pre-dose and post dose values as follows: % Reversal=[(Pre-dose−Post-dose)/(Pre-dose−Naïve)]×100.\nGraphs were plotted using Prism3. Statistical analysis was carried out using ANOVA and Fischer LSD test from statistical package Statistica 6.\nIn this study a positive control was also tested (celecoxib).\nas §1, with “(200-220” for “(180-220”\nAnimals were then dosed orally with vehicle, SB-792988-A (0.01, 0.1, 1 and 10 mg/kg p.o.), SB-399885-A (10 mg/kg p.o.) or celecoxib (10 mg/kg p.o.) as appropriate according to ranking and randomisation. Animals were assessed in the weight bearing apparatus 1 hour post dose.\nGraphs and were plotted using Prism3. Statistical analysis was carried out using ANOVA and Fischer LSD test from statistical package Statistica 6."}, "Random Hooded rats": {"system": "Random Hooded rats", "assay": "rat joint pain model of chronic inflammatory pain (intra-articular FCA, hind paw weight bearing)", "assay_type": "in vivo", "conditions": "for Statistics for hypersensitivity data (weight bearing), significance vs vehicle, Day 14: Day 14 post FCA; for Statistics for hypersensitivity data (weight bearing), significance vs vehicle, Day 15: Day 15 post FCA; for Statistics for hypersensitivity data (weight bearing), significance vs vehicle, Day 17: Day 17 post FCA", "experimental": "Random Hooded rats, 150-180 g, obtained from Charles River UK, were anaesthetised under gaseous anaesthetic and the area surrounding the left and right knee joint shaved and cleaned as for aseptic surgery. Animals were injected with 150 μl of FCA into the left knee joint (intra-articular injection). Animals were immediately allowed to recover from anaesthetic in a warmed/oxygenated environment until being returned to their home cage on paper bedding. No further post-op care was provided.\n(§2) Rats were tested prior to surgery and from 18 h post FCA (minimum of once weekly) for weight bearing (g) and joint diameter (mm). Weight bearing is measured by the animal's ability to place body weight across both hind paws on a Dual Channel Weight Averager which was calibrated each day prior to use using a 10 g weight (Rat capacitance tester—Linton Instruments). Hind paw weight bearing data was calculated and expressed as the percentage of the contralateral paw.\nAll data were expressed as mean±s.e.m.\n(§3) Prior to FCA intra-articular injection into the left knee, rats display even weight bearing. By day 1 post-insult weight bearing had shifted such that the majority of the body weight was transmitted through the contralateral limb. By day 10 this effect was maintained and at this point animals were randomised across treatment groups. Once daily dosing with vehicle, SB742457 or celecoxib began on day 13 and continued up to and including day 17.\nas §2, with “100” for “10”\nas §3, with “SB792988A” for “SB742457”, “17. […] AUC was calculated using Microsoft Excel.” for “17.”"}, "[3]": {"conditions": "10 mg/kg sub cutaneously 15 minutes prior to 3% mustard oil"}, "[4]": {"conditions": "30 mg/kg sub cutaneously 15 minutes prior to 3% mustard oil"}, "[5]": {"conditions": "30 mg/kg oral once daily from day 13, SB742457 study"}, "[6]": {"conditions": "30 mg/kg oral once daily from day 13, SB792988A study"}},
  "data": [
    {"smiles": "NCC1(CC(=O)O)CCCCC1", "note": "[gabapentin, reference compound]", "values": [
      {"measurement": "reversal of mechanical allodynia after 5 days of dosing", "setting": "rats [1]; after 5 days of dosing", "result": "not significantly different to Sham levels"},
      {"measurement": "reversal of mechanical allodynia after 8 days of dosing", "setting": "rats [1]; after 8 days of dosing", "result": "maximal reversal (P<0.001) back to Sham levels"},
      {"measurement": "reduction in behaviours compared to vehicle treated animals", "setting": "male Sprague Dawley rats; [3]", "result": 28, "unit": "%"},
      {"measurement": "reduction in behaviours compared to vehicle treated animals", "setting": "male Sprague Dawley rats; [4]", "result": 50, "unit": "%"},
      {"measurement": "reduction in behaviours compared to vehicle treated animals", "setting": "male Sprague Dawley rats; 100 mg/kg sub cutaneously 15 minutes prior to 3% mustard oil", "result": 69, "unit": "%"}
    ]},
    {"smiles": "Cc1ccc(-c2cc(C(F)(F)F)nn2-c2ccc(S(N)(=O)=O)cc2)cc1", "note": "[celecoxib, reference compound]", "values": [
      {"measurement": "weight bearing % reversal", "setting": "rats [2]; Table 5", "result": "74.81 ± 8.79", "unit": "%"},
      {"measurement": "weight bearing % reversal", "setting": "rats [2]; Table 7", "result": "73.00 ± 6.01", "unit": "%"},
      {"measurement": "Statistics for hypersensitivity data, significance vs vehicle, AUC", "setting": "Random Hooded rats; 30 mg/kg oral once daily days 13-17, AUC, SB742457 study", "result": "*** (*** = p < 0.001)"},
      {"measurement": "Statistics for hypersensitivity data (weight bearing), significance vs vehicle, Day 13", "setting": "Random Hooded rats; 30 mg/kg oral once daily from day 13, Day 13 post FCA, SB742457 study", "result": "* (* = p < 0.05)"},
      {"measurement": "Statistics for hypersensitivity data (weight bearing), significance vs vehicle, Day 14", "setting": "Random Hooded rats; [5]", "result": "*** (*** = p < 0.001)"},
      {"measurement": "Statistics for hypersensitivity data (weight bearing), significance vs vehicle, Day 14", "setting": "Random Hooded rats; [6]", "result": "* (* = p < 0.05)"},
      {"measurement": "Statistics for hypersensitivity data (weight bearing), significance vs vehicle, Day 15", "setting": "Random Hooded rats; [5]", "result": "*** (*** = p < 0.001)"},
      {"measurement": "Statistics for hypersensitivity data (weight bearing), significance vs vehicle, Day 15", "setting": "Random Hooded rats; [6]", "result": "*** (*** = p < 0.001)"},
      {"measurement": "Statistics for hypersensitivity data (weight bearing), significance vs vehicle, Day 16", "setting": "Random Hooded rats; 30 mg/kg oral once daily from day 13, Day 16 post FCA, SB792988A study", "result": "*** (*** = p < 0.001)"},
      {"measurement": "Statistics for hypersensitivity data (weight bearing), significance vs vehicle, Day 17", "setting": "Random Hooded rats; [5]", "result": "*** (*** = p < 0.001)"},
      {"measurement": "Statistics for hypersensitivity data (weight bearing), significance vs vehicle, Day 17", "setting": "Random Hooded rats; [6]", "result": "*** (*** = p < 0.001)"}
    ]},
    {"smiles": "COc1ccc(S(=O)(=O)Nc2cc(Cl)cc(Cl)c2OC)cc1N1CCNCC1.Cl", "note": "[SB399885A, N-(3,5-dichloro-2-methoxy-phenyl)-4-methoxy-3-piperazin-1-yl-benzenesulfonamide hydrochloride, reference compound]", "values": [
      {"measurement": "weight bearing % reversal", "setting": "rats [2]; Table 7", "result": "15.26 ± 5.70", "unit": "%"},
      {"measurement": "effect on FCA induced hypersensitivity", "setting": "rats [2]; p.o., intraplantar FCA", "result": "no effect"}
    ]},
    {"smiles": "Cc1[nH]cnc1CN1CCc2c(c3ccccc3n2C)C1=O", "note": "[alosetron, reference compound]", "values": [
      {"measurement": "reduction in behaviours compared to vehicle treated animals", "setting": "male Sprague Dawley rats; 0.1 mg/kg sub cutaneously 15 minutes prior to 3% mustard oil", "result": 56, "unit": "%"},
      {"measurement": "reduction in behaviours compared to vehicle treated animals", "setting": "male Sprague Dawley rats; 0.3 mg/kg sub cutaneously 15 minutes prior to 3% mustard oil", "result": 56, "unit": "%"},
      {"measurement": "reduction in behaviours compared to vehicle treated animals", "setting": "male Sprague Dawley rats; 1.0 mg/kg sub cutaneously 15 minutes prior to 3% mustard oil", "result": 54, "unit": "%"}
    ]},
    {"smiles": "CN(C)CCC=C1c2ccccc2CCc2ccccc21", "note": "[amitriptyline, reference compound]", "values": [
      {"measurement": "reduction in behaviours compared to vehicle treated animals", "setting": "male Sprague Dawley rats; 3 mg/kg sub cutaneously 15 minutes prior to 3% mustard oil", "result": 43, "unit": "%"},
      {"measurement": "reduction in behaviours compared to vehicle treated animals", "setting": "male Sprague Dawley rats; [3]", "result": 73, "unit": "%"},
      {"measurement": "reduction in behaviours compared to vehicle treated animals", "setting": "male Sprague Dawley rats; [4]", "result": 91, "unit": "%"}
    ]}
  ]
}
